The values that follow come from US7320972B2, “4-Biarylyl-1-phenylazetidin-2-ones” (Microbia, Inc., priority 2003, dated 2008).

Structures are written as SMILES.

For this assay, the system named is cholesterol absorption (serum 3H-cholesterol). The assay is described as follows: In Vivo Assay of Hypolipidemic Agents using the Rat Cholesterol Absorption Model. As to conditions: po, peroral, 1 mg/kg, serum 3H-cholesterol 3 h after cholesterol dose, vs vehicle control. Set-up: species or system Sprague-Dawley rats. Here is the method:
In Vivo Assay of Hypolipidemic Agents using the Rat Cholesterol Absorption Model. This model is based on models described by Burnett et al (2002), Bioorg. Med. Chem. Lett. 2002 Feb. 11;12(3):315-8 and J. Lipid Res. 1999 October;40(10):1747-57. Female Sprague-Dawley rats weighing 150-250 g are separated into groups of […] and fasted overnight. The animals (4-6/group) are dosed perorally with 300 μL test compounds in olive oil or suitable vehicle. Thirty minutes later, 3-5 microCuries ^3H-cholesterol per rat are delivered perorally in 300 μL olive oil. After three hours, 200 μL serum is collected, vortexed with scintillation fluid, and measured for radioactivity in a scintillation counter. Percent inhibition is defined as 100*(1−Ctest/Cctrl), where Ctest and Cctl refer to ^3H levels in serum for the test compound and for the vehicle only control, respectively. Percent inhibition values are reported for a fixed dose. The ED50 is the dose at which the half-maximal effect on serum ^3H levels is observed for a given test compound.
Representative compounds of the invention were tested in the Rat Cholesterol Absorption model above.
As usually defined, the inhibition in vivo is the change of the read-out against control, counted positive when it falls. Higher therefore signals a response far below the control. As for `O=C1[C@H](CC[C@H](O)c2ccc(F)cc2)[C@@H](c2ccc(-c3ccc4c(c3)OCCO4)cc2)N1c1ccc(F)cc1` [Example 87, (3R,4S)-4-[4-(2,3-dihydro-1,4-benzodioxin-6-yl)phenyl]-1-(4-fluorophenyl)-3-[(3S)-3-(4-fluorophenyl)-3-hydroxypropyl]azetidin-2-one], the inhibition in vivo at 1 mg/kg worked out at 59%.

`O=C(O)Cc1ccc(-c2ccc([C@@H]3[C@@H](CC[C@H](O)c4ccc(F)cc4)C(=O)N3c3ccc(F)cc3)cc2)cc1` [Example 88, (4′-{(2S,3R)-1-(4-fluorophenyl)-3-[(3S)-3-(4-fluorophenyl)-3-hydroxypropyl]-4-oxoazetidin-2-yl}biphenyl-4-yl)acetic Acid]: 1 mg/kg produced 30% inhibition in vivo.

`COC(=O)c1ccc(-c2ccc([C@@H]3[C@@H](CC[C@H](O)c4ccc(F)cc4)C(=O)N3c3ccc(F)cc3)cc2)cc1` [Example 89, methyl 4′-{(2S,3R)-1-(4-fluorophenyl)-3-[(3S)-3-(4-fluorophenyl)-3-hydroxypropyl]-4-oxoazetidin-2-yl}biphenyl-4-carboxylate] had an inhibition in vivo at 1 mg/kg of 45%.

Take `Cc1cc(C)cc(-c2ccc([C@@H]3[C@@H](CC[C@H](O)c4ccc(F)cc4)C(=O)N3c3ccc(F)cc3)cc2)c1` [Example 90, (3R,4S)-4-(3′,5′-dimethylbiphenyl-4-yl)-1-(4-fluorophenyl)-3-[(3S)-3-(4-fluorophenyl)-3-hydroxypropyl]azetidin-2-one]: the inhibition in vivo at 1 mg/kg was 27%.

As for `O=C1[C@H](CC[C@H](O)c2ccc(F)cc2)[C@@H](c2ccc(-c3ccc4ccccc4c3)cc2)N1c1ccc(F)cc1` [Example 91, (3R,4S)-1-(4-fluorophenyl)-3-[(3S)-3-(4-fluorophenyl)-3-hydroxypropyl]-4-[4-(2-naphthyl)phenyl]azetidin-2-one], the inhibition in vivo at 1 mg/kg was determined as 56%.

As to `O=C1[C@H](CC[C@H](O)c2ccc(F)cc2)[C@@H](c2ccc(-c3cccc(C(F)(F)F)c3)cc2)N1c1ccc(F)cc1` [Example 92, (3R,4S)-1-(4-fluorophenyl)-3-[(3S)-3-(4-fluorophenyl)-3-hydroxypropyl]-4-[3′-(trifluoromethyl)biphenyl-4-yl]azetidin-2-one], the inhibition in vivo at 1 mg/kg worked out at 17%.

As for `Cc1cccc(-c2ccc([C@@H]3[C@@H](CC[C@H](O)c4ccc(F)cc4)C(=O)N3c3ccc(F)cc3)cc2)c1` [Example 93, (3R,4S)-1-(4-fluorophenyl)-3-[(3S)-3-(4-fluorophenyl)-3-hydroxypropyl]-4-(3′-methylbiphenyl-4-yl)azetidin-2-one], the inhibition in vivo at 1 mg/kg worked out at 28%.

`Cc1cc(-c2ccc([C@@H]3[C@@H](CC[C@H](O)c4ccc(F)cc4)C(=O)N3c3ccc(F)cc3)cc2)ccc1F` [Example 94, (3R,4S)-4-(4′-fluoro-3′-methylbiphenyl-4-yl)-1-(4-fluorophenyl)-3-[(3S)-3-(4-fluorophenyl)-3-hydroxypropyl]azetidin-2-one] gave an inhibition in vivo at 1 mg/kg of 30%.

On to `O=C1[C@H](CC[C@H](O)c2ccc(F)cc2)[C@@H](c2ccc(-c3cccc(O[C@H]4O[C@@H](CO)[C@H](O)[C@@H](O)[C@@H]4O)c3)cc2)N1c1ccc(F)cc1` [Example 95, 4′-{(2S,3R)-1-(4-fluorophenyl)-3-[(3S)-3-(4-fluorophenyl)-3-hydroxypropyl]-4-oxoazetidin-2-yl}biphenyl-3-yl β-L-glucopyranoside], for which the inhibition in vivo at 1 mg/kg was determined as 57%.

Compound `COc1ccc(-c2ccc([C@@H]3[C@@H](CC[C@H](O)c4ccc(F)cc4)C(=O)N3c3ccc(F)cc3)cc2)c(OC)c1OC` [Example 96, (3R,4S)-1-(4-fluorophenyl)-3-[(3S)-3-(4-fluorophenyl)-3-hydroxypropyl]-4-(2′,3′,4′-trimethoxybiphenyl-4-yl)azetidin-2-one] came in with an inhibition in vivo at 1 mg/kg of 69%.

`COc1ccc(-c2ccc([C@@H]3[C@@H](CC[C@H](O)c4ccc(F)cc4)C(=O)N3c3ccc(F)cc3)cc2)c(OC)c1` [Example 97, (3R,4S)-4-(2′,4′-dimethoxybiphenyl-4-yl)-1-(4-fluorophenyl)-3-[(3S)-3-(4-fluorophenyl)-3-hydroxypropyl]azetidin-2-one] yielded an inhibition in vivo at 1 mg/kg of 40%.

The compound `Cc1ccccc1-c1ccc([C@@H]2[C@@H](CC[C@H](O)c3ccc(F)cc3)C(=O)N2c2ccc(F)cc2)cc1` [Example 98, (3R,4S)-1-(4-fluorophenyl)-3-[(3S)-3-(4-fluorophenyl)-3-hydroxypropyl]-4-(2′-methylbiphenyl-4-yl)azetidin-2-one] gave an inhibition in vivo at 1 mg/kg of 7%.

The compound `O=Cc1ccc(-c2ccc([C@@H]3[C@@H](CC[C@H](O)c4ccc(F)cc4)C(=O)N3c3ccc(F)cc3)cc2)cc1` [Example 99, 4′-{(2S,3R)-1-(4-fluorophenyl)-3-[(3S)-3-(4-fluorophenyl)-3-hydroxypropyl]-4-oxoazetidin-2-yl}biphenyl-4-carbaldehyde] registered an inhibition in vivo at 1 mg/kg of 38%.

`CCOc1cccc(-c2ccc([C@@H]3[C@@H](CC[C@H](O)c4ccc(F)cc4)C(=O)N3c3ccc(F)cc3)cc2)c1` [Example 100, (3R,4S)-4-(3′-ethoxybiphenyl-4-yl)-1-(4-fluorophenyl)-3-[(3S)-3-(4-fluorophenyl)-3-hydroxypropyl]azetidin-2-one] had an inhibition in vivo at 1 mg/kg of 54%.

Compound `CCOc1ccc(-c2ccc([C@@H]3[C@@H](CC[C@H](O)c4ccc(F)cc4)C(=O)N3c3ccc(F)cc3)cc2)cc1` [Example 101, (3R,4S)-4-(4′-ethoxybiphenyl-4-yl)-1-(4-fluorophenyl)-3-[(3S)-3-(4-fluorophenyl)-3-hydroxypropyl]azetidin-2-one] showed an inhibition in vivo at 1 mg/kg of 41%.

`COc1cc(-c2ccc([C@@H]3[C@@H](CC[C@H](O)c4ccc(F)cc4)C(=O)N3c3ccc(F)cc3)cc2)ccc1O` [Example 102, (3R,4S)-1-(4-fluorophenyl)-3-[(3S)-3-(4-fluorophenyl)-3-hydroxypropyl]-4-(4′-hydroxy-3′-methoxybiphenyl-4-yl)azetidin-2-one] returned an inhibition in vivo at 1 mg/kg of 56%.

The compound `CCCOc1cccc(-c2ccc([C@@H]3[C@@H](CC[C@H](O)c4ccc(F)cc4)C(=O)N3c3ccc(F)cc3)cc2)c1` [Example 103, (3R,4S)-1-(4-fluorophenyl)-3-[(3S)-3-(4-fluorophenyl)-3-hydroxypropyl]-4-(3′-propoxybiphenyl-4-yl)azetidin-2-one] showed an inhibition in vivo at 1 mg/kg of 21%.

For `O=Cc1ccc(O)cc1-c1ccc([C@@H]2[C@@H](CC[C@H](O)c3ccc(F)cc3)C(=O)N2c2ccc(F)cc2)cc1` [Example 104, 4′-{(2S,3R)-1-(4-fluorophenyl)-3-[(3S)-3-(4-fluorophenyl)-3-hydroxypropyl]-4-oxoazetidin-2-yl}-5-hydroxybiphenyl-2-carbaldehyde], the inhibition in vivo at 1 mg/kg was found to be 52%.

`CC(C)Oc1cccc(-c2ccc([C@@H]3[C@@H](CC[C@H](O)c4ccc(F)cc4)C(=O)N3c3ccc(F)cc3)cc2)c1` [Example 105, (3R,4S)-1-(4-fluorophenyl)-3-[(3S)-3-(4-fluorophenyl)-3-hydroxypropyl]-4-(3′-isopropoxybiphenyl-4-yl)azetidin-2-one] showed an inhibition in vivo at 1 mg/kg of 15%.

`O=C(O)c1cc(-c2ccc([C@@H]3[C@@H](CC[C@H](O)c4ccc(F)cc4)C(=O)N3c3ccc(F)cc3)cc2)ccc1O` [Example 106, 4′-{(2S,3R)-1-(4-fluorophenyl)-3-[(3S)-3-(4-fluorophenyl)-3-hydroxypropyl]-4-oxoazetidin-2-yl}-4-hydroxybiphenyl-3-carboxylic Acid] gave an inhibition in vivo at 1 mg/kg of 66%.

As to `COc1cc(OC)cc(-c2ccc([C@@H]3[C@@H](CC[C@H](O)c4ccc(F)cc4)C(=O)N3c3ccc(F)cc3)cc2)c1` [Example 107, (3R,4S)-4-(3′,5′-dimethoxybiphenyl-4-yl)-1-(4-fluorophenyl)-3-[(3S)-3-(4-fluorophenyl)-3-hydroxypropyl]azetidin-2-one], the inhibition in vivo at 1 mg/kg came out at 49%.

For the compound `O=C1[C@H](CC[C@H](O)c2ccc(F)cc2)[C@@H](c2ccc(-c3ccc(O)cc3O)cc2)N1c1ccc(F)cc1` [Example 108, (3R,4S)-4-(2′,4′-dihydroxybiphenyl-4-yl)-1-(4-fluorophenyl)-3-[(3S)-3-(4-fluorophenyl)-3-hydroxypropyl]azetidin-2-one], the inhibition in vivo at 1 mg/kg is 69%.

In turn, `CCCCOc1cccc(-c2ccc([C@@H]3[C@@H](CC[C@H](O)c4ccc(F)cc4)C(=O)N3c3ccc(F)cc3)cc2)c1` [Example 109, (3R,4S)-4-(3′-butoxybiphenyl-4-yl)-1-(4-fluorophenyl)-3-[(3S)-3-(4-fluorophenyl)-3-hydroxypropyl]azetidin-2-one] displayed an inhibition in vivo at 1 mg/kg of 52%.

In turn, `O=C(O)c1ccc(-c2ccc([C@@H]3[C@@H](CC[C@H](O)c4ccc(F)cc4)C(=O)N3c3ccc(F)cc3)cc2)cc1O` [Example 110, 4′-{(2S,3R)-1-(4-fluorophenyl)-3-[(3S)-3-(4-fluorophenyl)-3-hydroxypropyl]-4-oxoazetidin-2-yl}-3-hydroxybiphenyl-4-carboxylic Acid] had an inhibition in vivo at 1 mg/kg of 72%.

The compound `COc1cc(F)cc(-c2ccc([C@@H]3[C@@H](CC[C@H](O)c4ccc(F)cc4)C(=O)N3c3ccc(F)cc3)cc2)c1` [Example 111, (3R,4S)-4-(3′-fluoro-5′-methoxybiphenyl-4-yl)-1-(4-fluorophenyl)-3-[(3S)-3-(4-fluorophenyl)-3-hydroxypropyl]azetidin-2-one] displayed an inhibition in vivo at 1 mg/kg of 72%.
